Patent US20050090522A1 (priority 2001, published 2005)

Tested on: HIV-1
Experiment: HIV-1 single-round infectious luciferase reporter virus (pseudotype) assay in HeLa CD4 CCR5 cells
Format: cell-based
Conditions: Human immunodeficiency virus 1, HeLa-CD4/CCR5, read-out: EC50 Group from TABLE 1, HeLa CD4 CCR5 cells, single-round infectious luciferase reporter virus
In short: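 HeLa CD4 CCR5 cells (5×10^4/well, DMEM + 10% FBS) were treated with compound (final <10 μM) and infected with single-round luciferase reporter virus made in 293 cells, at MOI ~0.01. Luciferase was read 72 h post infection. EC50 came from 10-concentration percent-inhibition curves fitted to a four-parameter logistic model.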

| Structure (SMILES) | EC50 [nM] |
| --- | --- |
| COc1cnc(-c2cnc(N(C)C)cn2)c2[nH]cc(C(=O)C(=O)N3CCN(C(=O)c4ccccc4)CC3)c12 [Example 72, 1-(benzoyl)-4-[(4-methoxy-7-(2-dimethylamino-pyrazin-5-yl)-6-azaindol-3-yl)-oxoacetyl]piperazine] | < 1000 |
| O=C(C(=O)N1CCN(C(=O)c2ccccc2)CC1)c1c[nH]c2c(-n3cncn3)ncc(F)c12 [Example 215] | < 1000 |
| COc1cnc(-c2ncccn2)c2[nH]cc(C(=O)C(=O)N3CCN(C(=O)c4ccccc4)CC3)c12 [Example 49, 1-benzoyl-4-[(4-methoxy-7-(pdin-2-yl)-6-azaindol-3-yl)-oxoacetyl]piperazine] | < 1000 |
| CCOC(=O)c1ccc(OCc2ccn(-c3ncc(OC)c4c(C(=O)C(=O)N5CCN(C(=O)c6ccccc6)CC5)c[nH]c34)n2)cc1 [Example 285, 1-benzoyl-4-[(4-methoxy-7-(3-(4-ethoxycarbonyl-phenyl)oxymethyl-pyrazol-1-yl)-6-azaindol-3-yl)-oxoacetyl]piperazine] | < 1000 |
| COc1cnc(N(c2ccccn2)S(C)(=O)=O)c2[nH]cc(C(=O)C(=O)N3CCN(C(=O)c4ccccc4)CC3)c12 [Example 331] | < 1000 |
| CCOc1ncc(-c2ncc(OC)c3c(C(=O)C(=O)N4CCN(C(=O)c5ccccc5)CC4)c[nH]c23)s1 [Example 45, 1-benzoyl-4-[(4-methoxy-7-(2-ethoxy-thiazol-5-yl)-6-azaindol-3-yl)-oxoacetyl]piperazine] | < 1000 |
| COc1cnc(-n2ccc(CCO)n2)c2[nH]cc(C(=O)C(=O)N3CCN(C(=O)c4ccccc4)CC3)c12 [Example 248, 1-benzoyl-4-[(4-methoxy-7-(3-(3-hydroxylethyl)-pyrazol-1-yl)-6-azaindol-3-yl)-oxoacetyl]piperazine] | < 1000 |
| O=C(C(=O)N1CCN(C(=O)c2ccccc2)CC1)c1c[nH]c2c(-c3ccncn3)ncc(F)c12 [Example 125] | < 1000 |
| CCC(C)c1ncc(-c2ncc(OC)c3c(C(=O)C(=O)N4CCN(C(=O)c5ccccc5)CC4)c[nH]c23)s1 (stereo not drawn) [Example 91, 1-benzoyl-4-[(4-methoxy-7-(2-(2-butyl)-thiazol-5-yl)-6-azaindol-3-yl)-oxoacetyl]piperazine] | < 1000 |
| C[C@@H]1CN(C(=O)c2ccccc2)CCN1C(=O)C(=O)c1c[nH]c2c(-c3cnccn3)nccc12 [Example 33, 1-benzoyl-3-(R)-methyl-4-[(7-(pyrazin-2-yl)-6-azaindol-3-yl)-oxoacetyl]piperazine] | < 1000 |
| COc1cnc(-c2nccs2)c2[nH]cc(C(=O)C(=O)N3CCN(C(=O)c4ccccn4)CC3)c12 [Example 50] | < 1000 |
| COc1cnc(-n2ccc(C(C)C)n2)c2[nH]cc(C(=O)C(=O)N3CCN(C(=O)c4ccccc4)CC3)c12 [Example 249, 1-benzoyl-4-[(4-methoxy-7-(3-iso-propyl-pyrazol-1-yl)-6-azaindol-3-yl)-oxoacetyl]piperazine] | < 1000 |
| COc1cnc(-c2cnc(N)cn2)c2[nH]cc(C(=O)C(=O)N3CCN(C(=O)c4ccccc4)CC3)c12 [Example 26] | < 1000 |
| C[C@H]1CN(C(=O)c2ccccn2)CCN1C(=O)C(=O)c1c[nH]c2c(-c3cnc(N(C)C)cn3)nccc12 [Example 106, (S)-1-picolinoyl-3-methyl-4-[(7-(2-dimethylamino-pyrazin-5-yl)-6-azaindol-3-yl)-oxoacetyl]piperazine] | < 1000 |
| COc1cnc(-c2cscn2)c2[nH]cc(C(=O)C(=O)N3CCN(C(=O)c4ccccc4)CC3)c12 [Example 174, 1-benzoyl-4-[(4-methoxy-7-(thiazol-4-yl)-6-azaindol-3-yl)-oxoacetyl]piperazine] | < 1000 |
| CCCOC(=O)N1CCN(C(=O)C(=O)c2c[nH]c3c(-c4cnccn4)ncc(OC)c23)CC1 [Example 199] | < 1000 |
| COc1cnc(-c2cnc(N)nc2)c2[nH]cc(C(=O)C(=O)N3CCN(C(=O)c4ccccc4)CC3)c12 [Example 24] | < 1000 |
| COc1cnc(-n2ccc(-c3ccc(C)nc3)n2)c2[nH]cc(C(=O)C(=O)N3CCN(C(=O)c4ccccc4)CC3)c12 [Example 264, 1-benzoyl-4-[(4-methoxy-7-(3-(2-methylpyridin-5-yl)pyrazol-1-yl)-6-azaindol-3-yl)-oxoacetyl]piperazine] | < 1000 |
| C[C@@H]1CN(C(=O)c2ccccc2)CCN1C(=O)C(=O)c1c[nH]c2c(-c3cncnc3)ncc(F)c12 [Example 41, 1-benzoyl-3-(R)-methyl-4-[(4-fluoro-7-(pyrimidin-5-yl)-6-azaindol-3-yl)-oxoacetyl]piperazine] | < 1000 |
| C[C@@H]1CN(C(=O)c2ccccc2)CCN1C(=O)C(=O)c1c[nH]c2c(-c3cccc(NC(=O)C4OC4C(=O)O)n3)nccc12 (stereo in doubt) [Example 297, 3-(6-{3-[2-(4-Benzoyl-2-methyl-piperazin-1-yl)-2-oxo-acetyl]-1H-pyrrolo[2,3-c]pyridin-7-yl}-pyridin-2-ylcarbamoyl)-oxirane-2-carboxylic acid] | < 1000 |
| COc1cnc(-c2ccc(C=O)o2)c2[nH]cc(C(=O)C(=O)N3CCN(C(=O)c4ccccc4)CC3)c12 [Example 85, 1-(benzoyl)-4-[(4-methoxy-7-(5-carbonyl-furan-2-yl)-6-azaindol-3-yl)-oxoacetyl]piperazine] | < 1000 |
| COc1cnc(-c2cnccn2)c2[nH]cc(C(=O)C(=O)N3CCN(C(=O)c4cccc(C)n4)CC3)c12 [Example 201] | < 1000 |
| O=C(C(=O)N1CCN(C(=O)c2ccccc2)CC1)c1c[nH]c2c(-c3nccs3)nccc12 [Example 21, 1-benzoyl-4-[(7-(thiazol-2-yl)-6-azaindol-3-yl)-oxoacetyl]piperazine] | < 1000 |
| COc1cnc(-c2cc3ccncc3o2)c2[nH]cc(C(=O)C(=O)N3CCN(C(=O)c4ccccc4)CC3)c12 [Example 104, 1-benzoyl-4-[(4-methoxy-7-(6-aza-benzofuran-2-yl)-6-azaindol-3-yl)-oxoacetyl]piperazine] | < 1000 |
| COc1cnc(-n2ccc(C(C)(C)O)n2)c2[nH]cc(C(=O)C(=O)N3CCN(C(=O)c4ccccc4)CC3)c12 [Example 247, 1-benzoyl-4-[(4-methoxy-7-(3-(1-hydroxyl-1-methylethyl)-pyrazol-1-yl)-6-azaindol-3-yl)-oxoacetyl]piperazine] | < 1000 |
| CCNc1cnc(-c2ncc(OC)c3c(C(=O)C(=O)N4CCN(C(=O)c5ccccc5)CC4)c[nH]c23)cn1 [Example 79, 1-benzoyl-4-[(4-methoxy-7-(2-ethylamino-pyrazin-5-yl)-6-azaindol-3-yl)-oxoacetyl]piperazine] | < 1000 |
| COc1cnc(-n2ccc(-c3ccc(C(F)(F)F)cc3)n2)c2[nH]cc(C(=O)C(=O)N3CCN(C(=O)c4ccccc4)CC3)c12 [Example 288, 1-benzoyl-4-[(4-methoxy-7-(3-(4-trifluoromethyl-phenyl)-pyrazol-1-yl)-6-azaindol-3-yl)-oxoacetyl]piperazine] | < 1000 |
| COc1cnc(-n2nccc2N)c2[nH]cc(C(=O)C(=O)N3CCN(C(=O)c4ccccc4)CC3)c12 [Example 252, 1-benzoyl-4-[(4-methoxy-7-(5-amino-pyrazol-1-yl)-6-azaindol-3-yl)-oxoacetyl]piperazine] | < 1000 |
| COCc1ncn(-c2ncc(OC)c3c(C(=O)C(=O)N4CCN(C(=O)c5ccccc5)CC4)c[nH]c23)n1 [Example 323] | < 1000 |

Same assay, conditions: Human immunodeficiency virus 1, HeLa-CD4/CCR5, read-out: EC50 Group from Table 1, Table 2-1; HeLa CD4 CCR5 cells, single-round luciferase reporter virus

| Structure (SMILES) | EC50 [nM] |
| --- | --- |
| COc1cnc(-n2ccc(CN(C)C)n2)c2[nH]cc(C(=O)C(=O)N3CCN(C(=O)c4ccccc4)[C@H](C)C3)c12 [Example 239, (R)-1-benzoyl-2-methyl-4-[(4-methoxy-7-(3-(N,N-dimethylamino)methyl-pyrazol-1-yl)-6-azaindol-3-yl)-oxoacetyl]piperazine] | < 1000 |
| COc1cnc(-n2ccc(C(C)n3cncn3)n2)c2[nH]cc(C(=O)C(=O)N3CCN(C(=O)c4ccccc4)[C@H](C)C3)c12 (stereo partly drawn) [Example 265] | < 1000 |
| COc1cnc(-c2nc(-c3cccnc3)n[nH]2)c2[nH]cc(C(=O)C(=O)N3CCN(C(=O)c4ccccc4)[C@H](C)C3)c12 [Example 338] | < 1000 |
| CCOc1ccn(-c2ncc(OC)c3c(C(=O)C(=O)N4CCN(C(=O)c5ccccc5)[C@H](C)C4)c[nH]c23)n1 [Example 233, (R)-1-benzoyl-2-methyl-4-[(4-methoxy-7-(3-ethoxy-pyrazol-1-yl)-6-azaindol-3-yl)-oxoacetyl]piperazine] | < 1000 |

Same assay, conditions: Human immunodeficiency virus 1, HeLa-CD4/CCR5, read-out: EC50 Group from Table 1, Table 4; HeLa CD4 CCR5 cells, single-round luciferase reporter virus

| Structure (SMILES) | EC50 [nM] |
| --- | --- |
| C[C@@H]1CN(C(=O)c2ccccc2)CCN1C(=O)C(=O)c1c[nH]c2c(-c3cncnc3)ccnc12 [Example 51, 1-benzoyl-3-(R)-methyl-4-[(7-(pyrimidin-5-yl)-4-azaindol-3-yl)-oxoacetyl]piperazine] | < 1000 |
| CON(C)C(=O)c1cc(Cl)nc2c(C(=O)C(=O)N3CCN(C(=O)c4ccccc4)C[C@H]3C)c[nH]c12 [Example 58, 1-benzoyl-3-(R)-methyl-4-[(5-chloro-(7-(methoxymethylamino)carbonyl)-4-azaindol-3-yl)-oxoacetyl]piperazine] | < 1000 |
| Cc1csc(-c2ccnc3c(C(=O)C(=O)N4CCN(C(=O)c5ccccc5)CC4)c[nH]c23)c1 [Example 134] | < 1000 |
| CC(=O)c1ccc(-c2ccnc3c(C(=O)C(=O)N4CCN(C(=O)c5ccccc5)CC4)c[nH]c23)s1 [Example 132] | < 1000 |
| COc1ccc(-c2ccnc3c(C(=O)C(=O)N4CCN(C(=O)c5ccccc5)CC4)c[nH]c23)cc1 [Example 65, 1-(benzoyl)-4-[(7-(4-methoxy)-4-azaindol-3-yl)-oxoacetyl]piperazine] | < 1000 |
| C[C@@H]1CN(C(=O)c2ccccc2)CCN1C(=O)C(=O)c1c[nH]c2c(C(=O)c3cccs3)ccnc12 [Example 168, 1-benzoyl-3-(R)-methyl-4-[(7-(2-thienylcarbonyl)-4-azaindol-3-yl)-oxoacetyl]piperazine] | < 1000 |
